# PubChem BioAssay AID1996
# Conditions: buffer; pH 7.4; 200.0 µM
row,SMILES,solubility kinetic [µg/mL]
1,Cc1cccc(OCC(=O)NC2CC(C)(C)NC(C)(C)C2)c1,> 45.7
2,CCN(CC)S(=O)(=O)c1ccc2[nH]c(=O)c3ccccc3c2c1,< 0.4
3,Cn1c(=O)cc(N)n(-c2ccccc2)c1=O,> 32.6
4,Cc1c(C(=O)Nc2nccs2)oc2ccc(F)cc12,3.1
5,COc1cc(/C=C/[N+](=O)[O-])ccc1OC(=O)c1cc2ccccc2oc1=O,5.7
6,Cc1onc(-c2ccccc2)c1C(=O)N1CCCC(C(F)(F)F)C1 (centres undefined),42.7
7,O/N=C/c1ccc2cccc(OCc3ccccc3)c2n1,2.1
8,Cn1c(=O)n(C)c2cc(NC(=O)c3ccc(F)cc3)c(Br)cc21,8.2
9,CN(Cc1ccccc1)c1cc(Cl)nc(N)n1,21.5
10,Cc1cc(C)c(S(=O)(=O)N2CCN(C3CC(=O)N(c4ccccc4Cl)C3=O)CC2)c(C)c1 (centres undefined),16.7
11,Cc1cc(C)nc(SCC(=O)Nc2ccnc3ccccc23)n1,6.6
12,Cc1[nH]c2ccc(OCc3ccccc3)cc2c1CCN.Cl,> 47.5
13,CN(Cc1cnccn1)Cc1nc(Cc2ccccc2F)no1,> 47
14,CCn1c(=O)c2c(nc(SCC(=O)NC3CCCC3)n2C)n(C)c1=O,> 54.8
15,CC(=O)c1ccc(C(=O)NC2CCCN(Cc3ccccc3F)C2)cc1 (centres undefined),> 53.2
16,Cc1cc(NC(=O)c2ccc3[nH]c(C)c(C)c3c2)ccn1,37.6
17,CC(NC(=O)CN1CCOCC1)c1ccccc1 (centres undefined),> 37.2
18,COc1ccc(-c2nc(C(=O)O)cs2)cc1OC,> 39.8
19,O=C(COC(=O)CNC(=O)C1CCCCC1)Nc1cccc(F)c1,> 50.5
20,CC(C)(C)Nc1nc(Cl)nc(Nc2ccccc2)n1,2.9

row,SMILES,solubility kinetic [µg/mL]
1,CC(NC(=O)CNC(=O)c1cccc(Cl)c1)c1ccccc1 (centres undefined),43.7
2,COCCCN(C(=S)Nc1ccc(OC)cc1)C(C)c1ccncc1 (centres undefined),> 53.9
3,COc1ccc(OCC(=O)N2c3ccccc3CC2C)c([N+](=O)[O-])c1 (centres undefined),17.3
4,Cc1noc(NS(=O)(=O)c2ccc(N)cc2)c1C,> 40.1
5,CCC(C)(C)NC(=O)COc1ccc(OCc2ccccc2)cc1,9
6,Cc1cc2nc(C(C)(C)C)cc(N)n2n1,> 30.6
7,COCCn1cnc2c1c(=O)[nH]c(=O)n2Cc1ccccc1,37
8,COc1ccc(CN2C(=O)c3ccc(C(=O)O)cc3C2=O)cc1,> 46.7
9,CCOC(=O)C(=O)N1CCC(C(=O)OCC)CC1,> 38.6
10,CC1CN(CCn2cnc3c(N)ncnc32)CC(C)O1 (centres undefined),36.9
11,CCOC(=O)c1c(C)oc2cc(Cl)c(O)c(CN(C)C)c12,43.9
12,Cc1ccc(Nc2nc(NCCO)c3ccccc3n2)cc1C.Cl,30.9
13,O=[N+]([O-])c1cccc(NC(=S)N2CCCC2)c1,> 37.7
14,N#CC(CC(=O)c1ccc(F)cc1)c1ccc2c(c1)OCO2 (centres undefined),1.2
15,O=c1c2ccccc2[nH]c(=S)n1CCCn1ccnc1,19.4
16,COc1ccc(-n2c(C)nnc2SCC(=O)NC2CC2)cc1,> 47.8
17,Cc1ccc(C23CC4CC(CC(C(=O)NC(C)C(=O)O)(C4)C2)C3)cc1 (centres undefined),> 51.2
18,O=C(/C=C/c1ccccc1)Nc1nc(-c2ccncc2)cs1,0.9
19,CCc1sc(NC(=O)C(C)C)nc1-c1ccccc1,15.6
20,O=c1c(Cc2c(F)cccc2Cl)c(O)ccn1C1CC1,> 44.1

row,SMILES,solubility kinetic [µg/mL]
1,CC(=O)c1c(C)[nH]c(C(=O)Nc2cccc3ccccc23)c1C,5.9
2,Fc1ccccc1NC(=S)N1CCOCC1,> 36
3,COc1cccc(NC(=O)CC(=O)c2ccc([N+](=O)[O-])cc2)c1,4.3
4,CCOP(=O)(c1ccc(N(C)C)cc1)C(O)c1cccnc1 (centres undefined),> 48
5,CC1C(=O)N2CCCc3cc(NS(C)(=O)=O)cc1c32 (centres undefined),40.3
6,CC(C(=O)Nc1ccccn1)c1ccccc1 (centres undefined),> 33.9
7,CCN1CCN(C(=O)N(c2ccccc2)c2ccccc2)CC1,> 46.4
8,COn1c(=O)c(-c2cccc(Br)c2)[n+]([O-])c2ccccc21,4.9
9,O=C(c1ccc(F)cc1F)N1CCN(c2ccccn2)CC1,> 45.5
10,O=C1N[C@@H](Cc2ccccc2)C(=O)N2CCC[C@@H]12,> 36.6
11,Cc1ccc(-n2c(=O)c3ccccc3n(CC(=O)C(C)(C)C)c2=O)cc1,7.7
12,C[n+]1ccccc1/C=N/O.[Cl-],> 25.9
13,COc1ccc(-c2noc(=O)n2Cc2ccccc2Cl)cc1,17.8
14,O=C(CSc1ncccn1)Nc1ccc(Cl)c(S(=O)(=O)N2CCOCC2)c1,> 64.3
15,Fc1ccccc1NC(=S)NCc1ccc(Cl)cc1,11.2
16,CC(=O)N(c1nc(CCl)cs1)c1cccc(C)c1C,> 44.2
17,Nc1cc[n+](CC(=O)c2ccccc2)cc1.[Br-],> 44
18,NC1CCN(c2c(F)cc3c(=O)c(C(=O)O)cn(C4CC4)c3c2Cl)C1 (centres undefined),> 54.9
19,COc1cc(NC(c2ccccc2)c2ccccc2)cc(OC)c1OC,> 52.4
